These results are taken from patent publication US20240292836A1, “AGENTS FOR REPELLING, KNOCKING DOWN, AND/OR KILLING BLOOD-SUCKING ARTHROPODS AND USES THEREOF” (The United States of America, as represented by the …, priority 2023, published 2024).

Test [1] concerns female Aedes aegypti adults. The experiment in a line: High-throughput in vitro screening assay, spatial repellency. Type of test: in vivo. The conditions noted are these: 60 minutes, dose of 100 μg/cm^2. Put shortly:
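Female Aedes aegypti aged 2-7 days, 16 per glass tube, between acetone-treated and compound-treated filter papers they could not touch. Counts on the treated side at 15, 30 and 60 min; RD50 (μg/cm^2 paper) from 4-parameter log-logistic fits with asymptotes fixed at 0.5 and 0.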

The subject of test [2] is female Aedes aegypti adults. The experiment in a line: High-throughput in vitro screening assay, knockdown and mortality. The following applies: dose per assay tube volume, 95% CI.
Test [3] relates to female Aedes aegypti adults. The following applies: estimated from a previous report (Licciardi 2006); cited from earlier work.
The test system of test [4] is female Aedes aegypti adults. The test is described as follows: Arm-in-cage cloth-patch in vivo assay (topical repellency). The conditions noted are these: Mean ± SEM; lowest dosage with five or fewer bites through repellent-treated cloth in 1-minute exposure; at least three volunteers. Put shortly:
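Starved 3–7-day-old female Ae. aegypti (Orlando strain), about 200 per cage. Cloth patches (50 cm^2) were soaked with 1 mL of solution, air-dried about 15 min and worn over a nylon stocking on volunteers' arms. MED, the lowest concentration preventing biting, was averaged over at least three subjects with at least 3 replicates (±SEM).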

Where “and” joins values, the source holds several entries; their conditions need not be identical. Equal entries are not always repeated.

In test [1], `CCN(CC)C(=O)c1cccc(C)c1` [DEET, N,N-diethyl-meta-toluamide, reference compound] registered a mosquitoes repelled of 100%. The “KD50 (30 min), half-knockdown dose” value in test [2] (30 min) is greater than 15 µg/mL. In test [2] (60 min), the “KD50 (60 min), half-knockdown dose” value is greater than 15 µg/mL. In addition, the “dose at which knockdown might begin” value in test [3] was “approximately 15 μg/cm^3”. In test [4], the “Minimum Effective Dose (MED)” value is 0.0100±0.003 mg/cm^2 and 0.0100 mg/cm^2.
